Values of other authors in US20230157281A1, “COMPOSITIONS AND METHODS FOR REPELLING ANIMALS FROM AN OBJECT” (Texas Tech University System, priority 2020, published 2023).
Like-named read-outs stand apart in the source and are kept apart here.

Tests used:
cats [1] = test system: cats
cats [2] = details: preliminary data from another study; dosage not detailed

SMILES | use of litter box (cats [1]; added to the litter at 50 μg/kg of litter) | use of litter box (cats [1]; substance used in litter, result in words) | interest shown by male and female cats (cats [2]) | use of litter box (cats [1]; substance used in litter, result in words, listed as I-felinine)
CC(C)(S)CCO [MMB, 3-Mercapto-3-Methyl Butanol] | did not alter the use of litterbox | did not increase the use of litter box | showed interests | 
CC(C)(CCO)SC[C@H](N)C(=O)O [felinine] |  |  |  | attract cats to eliminate in the litter box
